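Each compound was tested at five concentrations against cells in 96-well plates for 48 hours. The concentration for 50% growth inhibition is given as GI50.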 Calls of active or inactive are those of the source. Cut-off read from the data, not from the text of the source: active = GI50 up to about 1.1 µM and inactive = higher.
Columns and labels:
Assay in all cases: NCI tumour cell line growth inhibition, 48 h
SK-MEL-5 = system: SK-MEL-5
A549 = system: A549
UO-31 = system: UO-31
TK-10 = system: TK-10
SK-MEL-28 = system: SK-MEL-28
Hs-578T = system: Hs-578T
HOP-92 = system: HOP-92
EKVX = system: EKVX
UACC-257 = system: UACC-257
NCI-H226 = system: NCI-H226
T47D = system: T47D
RPMI-8226 = system: RPMI-8226
DU-145 = system: DU-145
M14 = system: M14
MCF7 = system: MCF7
U-251 = system: U-251
SN12C = system: SN12C
HOP-62 = system: HOP-62
SK-MEL-2 = system: SK-MEL-2
SK-OV-3 = system: SK-OV-3

Row | SMILES | GI50 (SK-MEL-5) | GI50 (A549) | GI50 (UO-31) | GI50 (TK-10) | GI50 (SK-MEL-28) | GI50 (Hs-578T) | GI50 (HOP-92) | GI50 (EKVX) | GI50 (UACC-257) | GI50 (NCI-H226) | GI50 (T47D) | GI50 (RPMI-8226) | GI50 (DU-145) | GI50 (M14) | GI50 (MCF7) | GI50 (U-251) | GI50 (SN12C) | GI50 (HOP-62) | GI50 (SK-MEL-2) | GI50 (SK-OV-3)
1 | C=CCn1c2c(c3ccccc3c1=O)C(=O)c1ccccc1-2 | 43.8 µM (inactive) | > 100 µM (inactive) | > 100 µM (inactive) | > 50.6 µM (inactive) | > 100 µM (inactive) | > 60.3 µM (inactive) | > 100 µM (inactive) | > 100 µM (inactive) | > 100 µM (inactive) | > 100 µM (inactive) | > 100 µM (inactive) | > 25.6 µM (inactive) | > 89.3 µM (inactive) | > 100 µM (inactive) | > 100 µM (inactive) | 30.8 µM (inactive) | > 100 µM (inactive) | 31.4 µM (inactive) | > 100 µM (inactive) | > 100 µM (inactive)
2 | Cn1c(C(C)(C)OC(=O)Oc2ccccc2)cnc1[N+](=O)[O-] | 53.3 µM (inactive) | > 100 µM (inactive) | > 100 µM (inactive) | > 100 µM (inactive) | > 100 µM (inactive) | > 100 µM (inactive) | > 100 µM (inactive) | 42.9 µM (inactive) | 36 µM (inactive) | 36.6 µM (inactive) | > 100 µM (inactive) | 21 µM (inactive) | > 100 µM (inactive) | > 100 µM (inactive) | 63 µM (inactive) | > 100 µM (inactive) | 19.7 µM (inactive) | > 100 µM (inactive) | > 100 µM (inactive) | > 100 µM (inactive)
3 | C=CCNC1=C2C[C@@H](C)C[C@@H](OC)[C@@H](OC(=O)CCCN)[C@H](C)/C=C(\C)[C@@H](OC(N)=O)[C@H](OC)/C=C\C=C(/C)C(=O)NC(=CC1=O)C2=O | 8.39 µM (inactive) | 15.7 µM (inactive) | 18.4 µM (inactive) | 16.7 µM (inactive) | 16.3 µM (inactive) | 20.9 µM (inactive) | 14.7 µM (inactive) | 18.7 µM (inactive) | 15.1 µM (inactive) | 17.1 µM (inactive) | 27.4 µM (inactive) | 14.3 µM (inactive) | 13.8 µM (inactive) | 9.38 µM (inactive) | 6.98 µM (inactive) | 9.44 µM (inactive) | 17.4 µM (inactive) | 6.24 µM (inactive) | 15.9 µM (inactive) | 14.6 µM (inactive)
4 | CCOC(=O)CSc1nnc2cc(CN3CCCC3)c(-c3ccc(Cl)cc3)nn12 | > 100 µM (inactive) | > 100 µM (inactive) | > 100 µM (inactive) | > 100 µM (inactive) | > 100 µM (inactive) | > 100 µM (inactive) | > 100 µM (inactive) | > 100 µM (inactive) | 91.4 µM (inactive) | > 100 µM (inactive) | 57.5 µM (inactive) | 63.2 µM (inactive) | 71.6 µM (inactive) | > 100 µM (inactive) | 46.9 µM (inactive) | > 100 µM (inactive) | > 100 µM (inactive) | > 100 µM (inactive) | > 100 µM (inactive) | > 100 µM (inactive)
5 | c1cnc2c(c1)ccc1cccnc12 | 2.62 µM (inactive) | 5.07 µM (inactive) | 2.3 µM (inactive) | 3.88 µM (inactive) | 4.95 µM (inactive) | > 36.3 µM (inactive) | 8.91 µM (inactive) | 3.91 µM (inactive) | 3.78 µM (inactive) | 2.05 µM (inactive) | 4.92 µM (inactive) | 2.67 µM (inactive) | 4.13 µM (inactive) | 4.02 µM (inactive) | 3.66 µM (inactive) | > 20.2 µM (inactive) | 3.27 µM (inactive) | 5.83 µM (inactive) | > 28.4 µM (inactive) | 11.7 µM (inactive)
6 | COc1cc(-c2cc(OC)c(OC)c3ccc(Br)cc23)c2cc(Br)ccc2c1OC | 32.3 µM (inactive) | 20.3 µM (inactive) | 41.8 µM (inactive) | 31.1 µM (inactive) | 20.1 µM (inactive) | 38.8 µM (inactive) | 18.9 µM (inactive) | 85.9 µM (inactive) | 46.1 µM (inactive) | 23.3 µM (inactive) | 31.6 µM (inactive) | 21.4 µM (inactive) | 29 µM (inactive) | 23.2 µM (inactive) | 47.2 µM (inactive) | 20.5 µM (inactive) | 26 µM (inactive) | 21.6 µM (inactive) | 25.4 µM (inactive) | 30.8 µM (inactive)
7 | CN(C)N1C(=C(C#N)C#N)C(c2ccccc2)CC1C#N (stereo not given) | > 100 µM (inactive) | > 100 µM (inactive) | > 100 µM (inactive) | > 100 µM (inactive) | > 100 µM (inactive) | > 100 µM (inactive) | > 100 µM (inactive) | > 100 µM (inactive) | > 100 µM (inactive) | > 100 µM (inactive) | > 100 µM (inactive) | > 100 µM (inactive) | > 100 µM (inactive) | > 100 µM (inactive) | > 100 µM (inactive) | > 100 µM (inactive) | > 100 µM (inactive) | > 100 µM (inactive) | > 100 µM (inactive) | > 100 µM (inactive)
8 | O=c1[nH]nc(Cc2ccccc2)n1/N=C/c1ccc([N+](=O)[O-])o1 | 1.83 µM (inactive) | 4.1 µM (inactive) | 4.47 µM (inactive) | 4.36 µM (inactive) | 2.2 µM (inactive) | 1 µM (active) | 3.03 µM (inactive) | 3.77 µM (inactive) | 3.56 µM (inactive) | 12.5 µM (inactive) | 6.7 µM (inactive) | 2.63 µM (inactive) | 3.77 µM (inactive) | 2.24 µM (inactive) | 1.86 µM (inactive) | 2.87 µM (inactive) | 3.31 µM (inactive) | 3.08 µM (inactive) | 3.56 µM (inactive) | 15.4 µM (inactive)
9 | C=CCCCC1CCCNC1=O (stereo not given) | > 100 µM (inactive) | > 100 µM (inactive) | > 100 µM (inactive) | > 100 µM (inactive) | > 100 µM (inactive) | > 100 µM (inactive) | > 100 µM (inactive) | > 100 µM (inactive) | > 100 µM (inactive) | > 100 µM (inactive) | > 100 µM (inactive) | > 100 µM (inactive) | > 100 µM (inactive) | > 100 µM (inactive) | > 100 µM (inactive) | > 100 µM (inactive) | > 100 µM (inactive) | > 100 µM (inactive) | > 100 µM (inactive) | > 100 µM (inactive)
10 | COc1ccc(/C=C/C(=O)c2ccc(OC(=O)/C=C/c3ccccc3)cc2)cc1 | 26 µM (inactive) | 29.5 µM (inactive) | 22.7 µM (inactive) | 44.1 µM (inactive) | 43.6 µM (inactive) | 36 µM (inactive) | 44.5 µM (inactive) | 29 µM (inactive) | 37.7 µM (inactive) | 59.3 µM (inactive) | 23.9 µM (inactive) | 3.7 µM (inactive) | 11.9 µM (inactive) | 59.8 µM (inactive) | 23.6 µM (inactive) | 19 µM (inactive) | 26.6 µM (inactive) | 61.1 µM (inactive) | 45.1 µM (inactive) | 53 µM (inactive)

Source: ChEMBL document CHEMBL1201862, “PubChem BioAssay data set” (2004)
